In article PMC3542538 (Journal of medicinal chemistry, 2012):
Entries after “also recorded” stand apart in the source; their conditions may differ. Where a name gives a salt, the structure may show the parent alone.

molecular target: T1, recombinant human Top1 (Homo sapiens, UniProt P11387); assay: Topoisomerase I-mediated DNA cleavage reactions; assay type: biochemical; conditions: 100 μM
T1 sequence (P11387 1-765): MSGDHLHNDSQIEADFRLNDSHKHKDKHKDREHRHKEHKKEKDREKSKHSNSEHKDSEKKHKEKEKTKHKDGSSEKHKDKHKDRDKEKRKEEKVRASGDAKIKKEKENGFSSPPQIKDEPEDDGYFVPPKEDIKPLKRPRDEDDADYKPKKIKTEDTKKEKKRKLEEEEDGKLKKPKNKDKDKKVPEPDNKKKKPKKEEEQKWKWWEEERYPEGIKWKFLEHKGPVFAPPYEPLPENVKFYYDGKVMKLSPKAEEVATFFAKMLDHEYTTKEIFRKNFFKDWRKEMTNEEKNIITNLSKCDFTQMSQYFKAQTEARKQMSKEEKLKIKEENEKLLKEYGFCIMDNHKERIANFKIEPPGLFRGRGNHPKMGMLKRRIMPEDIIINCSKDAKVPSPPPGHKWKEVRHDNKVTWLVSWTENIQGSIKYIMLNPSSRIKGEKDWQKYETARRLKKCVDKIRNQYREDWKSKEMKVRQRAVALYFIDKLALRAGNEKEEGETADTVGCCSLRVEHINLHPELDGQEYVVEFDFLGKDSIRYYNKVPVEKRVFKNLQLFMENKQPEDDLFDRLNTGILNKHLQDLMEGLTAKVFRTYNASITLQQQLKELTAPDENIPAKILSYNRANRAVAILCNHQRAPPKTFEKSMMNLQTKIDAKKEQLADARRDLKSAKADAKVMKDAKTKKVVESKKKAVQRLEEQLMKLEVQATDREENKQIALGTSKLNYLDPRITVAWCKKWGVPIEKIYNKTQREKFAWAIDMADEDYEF

Row | Compound | suppression of Top1-mediated DNA cleavage at high drug concentration
1 | COc1ccc2c(c1)-c1c(c3ccc([N+](=O)[O-])cc3c(=O)n1CCCn1ccnc1)C2=O [Compound 52, 6-(3-(1H-Imidazol-1-yl)propyl)-8-methoxy-3-nitro-5H-indeno[1,2-c]isoquinoline-5,11(6H)-dione] | slight suppression; also recorded: does not
2 | COc1ccc2c(c1)C(=O)c1c-2n(CCCN(C)C)c(=O)c2cc(I)ccc12 [Compound 85, 3-Iodo-9-methoxy-6-(3-(Dimethylamino)propyl)-5H-indeno[1,2-c]isoquinoline-5,11(6H)-dione] | complete suppression; also recorded: suppress

tested on: single-stranded DNA substrate; assay: Surface plasmon resonance binding to single-stranded DNA substrate; conditions: SPR

Row | Compound | binding to the single-stranded DNA substrate
3 | Cn1c2c(c3ccc(NC(=O)C(=O)O)cc3c1=O)C(=O)c1ccccc1-2 [Compound 14] | did not bind

tested on: all human cancer cell lines successfully tested; assay: cells; conditions: read-out: MGM (mean graph midpoint GI50)

Row | GI50 [µM] | Compound
4 | 1.09 | COC(=O)CCCC(=O)Nc1ccc2c3c(n(CCCN)c(=O)c2c1)-c1ccccc1C3=O [Compound 25, Methyl 5-[(6-(3-Aminopropyl)-5,11-dioxo-6,11-dihydro-5H-indeno[1,2-c]isoquinolin-3-yl)amino]-5-oxopentanoate]
5 | 0.87 ± 0.014 | NCCCn1c2c(c3ccc(NCC(=O)O)cc3c1=O)C(=O)c1ccccc1-2 [Compound 43, 2-((6-(3-Aminopropyl)-5,11-dioxo-6,11-dihydro-5H-indeno[1,2-c]isoquinolin-3-yl)amino)acetic Acid Hydrochloride]
6 | 0.17 ± 0.017 | COc1ccc2c(c1)-c1c(c3ccc([N+](=O)[O-])cc3c(=O)n1CCCN)C2=O [Compound 51, 6-(3-Aminopropyl)-5,6-dihydro-8-methoxy-3-nitro-5,11-dioxo-11H-indeno[1,2-c]isoquinoline Hydrochloride]
7 | 0.16 | NCCCn1c2c(c3ccc(N)cc3c1=O)C(=O)c1ccccc1-2 [Compound 62]
8 | 0.3 ± 0.014 | CN(C)CCCn1c2c(c3ccc(C#N)cc3c1=O)C(=O)c1ccccc1-2 [Compound 74]
9 | 0.25 ± 0.004 | COc1ccc2c(c1)C(=O)c1c-2n(CCCN)c(=O)c2cc(I)ccc12 [Compound 84, 6-(3-Aminopropyl)-5,6-dihydro-9-methoxy-3-iodo-5,11-dioxo-11H-indeno[1,2-c]isoquinoline]
10 | 0.04 | COc1ccc2c(c1)C(=O)c1c-2n(CCCN)c(=O)c2cc(N)ccc12 [Compound 89, 3-Amino-6-(3-aminopropyl)-5,6-dihydro-9-methoxy-5,11-dioxo-11H-indeno[1,2-c]isoquinoline Dihydrochloride]

Further lines, the compound ahead of its results:

Row | Compound | GI50 [µM]
11 | COC(=O)C(=O)Nc1ccc2c3c(n(CCCN)c(=O)c2c1)-c1ccccc1C3=O [Compound 22, Methyl 2-[(6-(3-Aminopropyl)-5,11-dioxo-6,11-dihydro-5H-indeno[1,2-c]isoquinolin-3-yl)amino]-2-oxoacetate] | 1.86 ± 0.38
12 | COC(=O)CC(=O)Nc1ccc2c3c(n(CCCN)c(=O)c2c1)-c1ccccc1C3=O [Compound 23, Methyl 3-[(6-(3-Aminopropyl)-5,11-dioxo-6,11-dihydro-5H-indeno[1,2-c]isoquinolin-3-yl)amino]-3-oxopropanoate] | 1.86
13 | COc1ccc2c(c1)-c1c(c3ccc([N+](=O)[O-])cc3c(=O)n1CCCn1ccnc1)C2=O [Compound 52, 6-(3-(1H-Imidazol-1-yl)propyl)-8-methoxy-3-nitro-5H-indeno[1,2-c]isoquinoline-5,11(6H)-dione] | 0.02 ± 0.0006
14 | COc1ccc2c(c1)C(=O)c1c-2n(CCCN)c(=O)c2cc([N+](=O)[O-])ccc12 [Compound 54] | 0.02 ± 0.0008
15 | O=C1c2ccccc2-c2c1c1ccc([N+](=O)[O-])cc1c(=O)n2CCCO [Compound 63] | 0.89 ± 0.22

molecular target: recombinant Tdp1 (Homo sapiens, UniProt Q9NUW8); assay: not given; assay type: biochemical; conditions: not given
Sequence (Q9NUW8 whole entry): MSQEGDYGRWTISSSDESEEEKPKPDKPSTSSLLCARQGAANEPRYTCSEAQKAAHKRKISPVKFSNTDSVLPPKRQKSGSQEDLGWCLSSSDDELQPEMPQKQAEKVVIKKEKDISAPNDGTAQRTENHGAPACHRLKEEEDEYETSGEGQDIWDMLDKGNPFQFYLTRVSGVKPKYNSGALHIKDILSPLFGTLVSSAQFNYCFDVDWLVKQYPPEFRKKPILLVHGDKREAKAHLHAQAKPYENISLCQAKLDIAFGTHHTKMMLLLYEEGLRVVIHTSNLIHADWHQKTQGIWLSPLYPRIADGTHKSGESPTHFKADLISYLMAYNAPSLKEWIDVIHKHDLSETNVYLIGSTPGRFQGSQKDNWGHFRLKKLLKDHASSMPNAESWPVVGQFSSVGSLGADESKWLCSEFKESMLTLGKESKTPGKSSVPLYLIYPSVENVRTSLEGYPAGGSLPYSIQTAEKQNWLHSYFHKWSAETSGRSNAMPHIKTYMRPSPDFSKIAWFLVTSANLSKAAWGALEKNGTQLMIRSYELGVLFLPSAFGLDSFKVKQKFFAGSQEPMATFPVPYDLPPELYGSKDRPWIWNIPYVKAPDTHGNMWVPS

Row | Tdp1 inhibitory activity (in words) | Compound
16 | inactivity; also recorded: inactive | CCOC(=O)CNc1ccc2c3c(n(C)c(=O)c2c1)-c1ccccc1C3=O [Compound 38, Ethyl 2-[(6-Methyl-5,11-dioxo-6,11-dihydro-5H-indeno[1,2-c]isoquinolin-3-yl)amino]acetate]
17 | active | CCOC(=O)CNc1ccc2c3c(n(CCCN)c(=O)c2c1)-c1ccccc1C3=O.Cl [Compound 40, Ethyl 2-[(6-(3-Aminopropyl)-5,11-dioxo-6,11-dihydro-5H-indeno[1,2-c]isoquinolin-3-yl)amino]acetate Hydrochloride]
18 | inactivity; also recorded: inactive | Cn1c2c(c3ccc(NCC(=O)O)cc3c1=O)C(=O)c1ccccc1-2 [Compound 41, 2-[(6-Methyl-5,11-dioxo-6,11-dihydro-5H-indeno[1,2-c]isoquinolin-3-yl)amino]acetic Acid]
19 | very weak or inactive | COc1ccc2c(c1)-c1c(c3ccc([N+](=O)[O-])cc3c(=O)n1CCCBr)C2=O [Compound 49, 6-(3-Bromopropyl)-5,6-dihydro-8-methoxy-3-nitro-5,11-dioxo-11H-indeno[1,2-c]isoquinoline]
20 | very weak or inactive | COc1ccc2c(c1)-c1c(c3ccc([N+](=O)[O-])cc3c(=O)n1CCCN=[N+]=[N-])C2=O [Compound 50, 6-(3-Azidopropyl)-5,6-dihydro-8-methoxy-3-nitro-5,11-dioxo-11H-indeno[1,2-c]isoquinoline]
21 | very weak or inactive | COc1ccc2c(c1)-c1c(c3ccc([N+](=O)[O-])cc3c(=O)n1CCCN1CCOCC1)C2=O [Compound 53, 8-Methoxy-6-(3-morpholinopropyl)-3-nitro-5H-indeno[1,2-c]isoquinoline-5,11(6H)-dione]

Continued, compound first:

Row | Compound | Tdp1 inhibitory activity (in words)
22 | COC(=O)C(=O)Nc1ccc2c3c(n(C)c(=O)c2c1)-c1ccccc1C3=O [Compound 9, Methyl 2-[(6-Methyl-5,11-dioxo-6,11-dihydro-5H-indeno[1,2-c]isoquinolin-3-yl)amino]-2-oxoacetate] | inactive
23 | Cn1c2c(c3ccc(NC(=O)CC(=O)O)cc3c1=O)C(=O)c1ccccc1-2 [Compound 15, 3-[(6-Methyl-5,11-dioxo-6,11-dihydro-5H-indeno[1,2-c]isoquinolin-3-yl)amino]-3-oxopropanoic Acid] | inactive
24 | CC(C)(C)OC(=O)NCCCn1c2c(c3ccc(NC(=O)CCC(=O)O)cc3c1=O)C(=O)c1ccccc1-2 [Compound 29, 4-[(6-(3-((tert-Butoxycarbonyl)amino)propyl)-5,11-dioxo-6,11-dihydro-5H-indeno[1,2-c]isoquinolin-3-yl)amino]-4-oxobutanoic Acid] | weakly active
25 | CC(C)(C)OC(=O)NCCCn1c2c(c3ccc(NC(=O)CCCC(=O)O)cc3c1=O)C(=O)c1ccccc1-2 [Compound 30, 5-[(6-(3-((tert-Butoxycarbonyl)amino)propyl)-5,11-dioxo-6,11-dihydro-5H-indeno[1,2-c]isoquinolin-3-yl)amino]-5-oxopentanoic Acid] | inactive
26 | CC(C)(C)OC(=O)NCCCn1c2c(c3ccc(NC(=O)CCCCC(=O)O)cc3c1=O)C(=O)c1ccccc1-2 [Compound 31, 6-[(6-(3-((tert-Butoxycarbonyl)amino)propyl)-5,11-dioxo-6,11-dihydro-5H-indeno[1,2-c]isoquinolin-3-yl)amino]-6-oxohexanoic Acid] | weakly active
27 | CC(C)(C)OC(=O)NCCCn1c2c(c3ccc(NCC(=O)O)cc3c1=O)C(=O)c1ccccc1-2 [Compound 42, 2-((6-(3-((tert-Butoxycarbonyl)amino)propyl)-5,11-dioxo-6,11-dihydro-5H-indeno[1,2-c]isoquinolin-3-yl)amino)acetic Acid] | inactivity
28 | COc1ccc2c(c1)-c1c(c3ccc([N+](=O)[O-])cc3c(=O)n1CCCn1ccnc1)C2=O [Compound 52, 6-(3-(1H-Imidazol-1-yl)propyl)-8-methoxy-3-nitro-5H-indeno[1,2-c]isoquinoline-5,11(6H)-dione] | very weak or inactive
